Values of other authors in patent US8512972B2, “Crystal of hypoxia inducible factor 1 alpha prolyl hydroxylase” (Akebia Therapeutics, Inc., priority 2006, dated 2013).

Experiments:
HIF protein = settings: administered to rats
[1] = system: HIF protein in HT1080, PC12W and 3T3L1 cells; settings: HT1080, PC12W and 3T3L1 cells in culture
[2] = system: GLUT1, heme oxygenase and nitric oxide synthase; settings: neonatal rat cardiomyocytes

expression of GLUT1, heme oxygenase and nitric oxide synthase [2] | Compound | HIF protein expression in the kidney (HIF protein) | induction of HIF protein [1]
– | N[C@@H](Cn1ccc(=O)c(O)c1)C(=O)O [L-mimosine] | induced HIF protein expression | induce HIF protein
induced the expression | COC(=O)CNC(=O)C(=O)OC [dimethyloxalylglycine] | – | –
induced the expression | CCOC(=O)c1ccc(O)c(O)c1 [ethyl-3,4 dihydroxybenzoate] | – | induce HIF protein
